Results on 14 molecules are retold here after patent publication US12514938B2, “Fibroblast activation protein targeting peptides” (PERSPECTIVE THERAPEUTICS, INC., priority 2023, dated 2026).

*1 amine or outer side, *2 acyl side, *3 side chain or, on linkers, in order; H or OH if unused. Where a SMILES comes first, the peptide text is derived from it. Bridges are numbered along the chain shown (N, C = ends). [ ]: non-standard residue; d: D form. The star is where a group is joined. X3 = NC(=O)CN1CCN(CC(=O)O)CCN(CC(=O)NCCOCCOCCC(=O)N[C@@H](Cc2ccccc2)C(=O)NC(CC(=O)[*:1])CC(=O)[*:2])CCN(CC(=O)O)CC1; X1 = NC(=O)CN1CCN(CC(=O)O)CCN(CC(=O)*)CCN(CC(=O)O)CC1; oXylylene = c1ccc(C[*:2])c(C[*:1])c1; Bta = N[C@@H](Cc1csc2ccccc12)C(=O)O; 3Pal = N[C@@H](Cc1cccnc1)C(=O)O; Dap = NC[C@H](N)C(=O)O; PEG2 = NCCOCCOCCC(=O)O

For this test, the target named is T1, Human Fibroblast Activation Protein (FAP) (Homo sapiens, UniProt Q12884).
T1 sequence (Q12884 1-760): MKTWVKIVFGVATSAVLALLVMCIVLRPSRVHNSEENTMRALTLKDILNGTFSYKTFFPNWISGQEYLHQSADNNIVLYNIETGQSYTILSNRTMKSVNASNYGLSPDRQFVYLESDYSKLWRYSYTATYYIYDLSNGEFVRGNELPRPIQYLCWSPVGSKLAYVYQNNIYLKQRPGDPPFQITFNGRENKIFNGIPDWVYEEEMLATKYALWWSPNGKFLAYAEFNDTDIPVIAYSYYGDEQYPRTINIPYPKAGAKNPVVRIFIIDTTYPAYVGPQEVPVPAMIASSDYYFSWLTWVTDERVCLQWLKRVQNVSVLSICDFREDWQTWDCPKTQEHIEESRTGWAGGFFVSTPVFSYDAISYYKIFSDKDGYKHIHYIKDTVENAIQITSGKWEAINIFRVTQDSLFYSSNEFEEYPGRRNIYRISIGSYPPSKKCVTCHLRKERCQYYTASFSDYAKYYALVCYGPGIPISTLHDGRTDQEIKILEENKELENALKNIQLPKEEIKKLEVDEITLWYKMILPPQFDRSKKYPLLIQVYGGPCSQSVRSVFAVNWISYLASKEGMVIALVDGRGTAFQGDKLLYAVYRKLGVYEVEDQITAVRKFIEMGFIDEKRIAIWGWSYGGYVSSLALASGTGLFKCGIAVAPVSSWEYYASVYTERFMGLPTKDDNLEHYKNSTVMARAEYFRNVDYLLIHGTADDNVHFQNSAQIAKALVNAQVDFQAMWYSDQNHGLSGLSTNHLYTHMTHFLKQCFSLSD
Kind of test: Enzyme inhibition assay against human FAP (substrate Z-GP-AMC), Example 1. Format: biochemical. As to conditions: human FAP 5 ng/well, 50 μM Z-GP-AMC; Ki from IC50 by Cheng-Prusoff. On the procedure: Binding Affinity Against Human Fibroblast Activation Protein (FAP)
An enzyme inhibition assay was performed to determine IC50 values and then the Cheng-Prusoff equation used to calculate the Ki given a known Km of the substrate Z-GP-AMC for FAP. To perform the assay, FAP (5 ng/well) and the test peptide at varying concentrations (i.e. 10^−6 to 10^−12) were incubated in a black 96-well plate for 10 minutes at RT on a shaker plate. Then, the substrate Z-GP-AMC was added to give a final concentration of 50 μM. The total reaction volume per well was 100 μL The reaction was allowed to incubate at RT on a shaker plate for 1 hour protected from light, and then fluorescence read with a BioTek Synergy LX plate reader at an ex/em (360/40 and 460/40). Experiments were performed in at least duplicate, and controls of buffer only, buffer and FAP enzyme, and buffer with substrate and FAP enzyme only were included for comparison. The buffer used for the assay was 50 mM Tris-HCl, 1M NaCl, and 1 mg/mL BSA, pH=7.5. Data was plotted in GraphPad Prism and non-linear regression used to calculate IC50 values. The compounds tested and Ki values of each were as follows: […]
As for `C[C@@H](O)[C@@H]1NC(=O)[C@@H](NC(=O)[C@H](CO)NC(=O)CCOCCOCCNC(=O)CN2CCN(CC(=O)O)CCN(CC(N)=O)CCN(CC(=O)O)CC2)CSCc2ccccc2CSC[C@@H](C(N)=O)NC(=O)[C@H](Cc2c[nH]c3ccccc23)NC(=O)[C@H](Cc2c[nH]c3ccccc23)NC(=O)[C@H](CCC(N)=O)NC(=O)[C@H](CCC(=O)O)NC(=O)[C@H](Cc2c[nH]c3ccccc23)NC(=O)[C@@H]2CCCN2C1=O` [VMT-FAP-2-42, PSC-PEG2-S-[C(oXdB)TPWEQWWC]-NH2] ({X1-PEG2}-SCTPWEQWWC-NH2; linker 2-10 via oXylylene), the inhibition constant (Ki) worked out at 0.29 nM.
For `CC(=O)N[C@@H](CCCNC(=N)N)C(=O)N[C@H]1CSCc2ccccc2CSC[C@@H](C(N)=O)NC(=O)[C@H](Cc2c[nH]c3ccccc23)NC(=O)[C@H](Cc2c[nH]c3ccccc23)NC(=O)[C@H](CCC(N)=O)NC(=O)[C@H](CCC(=O)O)NC(=O)[C@H](Cc2ccccc2)NC(=O)[C@@H]2CCCN2C(=O)[C@H]([C@@H](C)O)NC1=O` [VMT-FAP-1-13, Ac-R[C(oXdB)TPFEQWWC]-NH2] (Ac-RCTPFEQWWC-NH2; linker 2-10 via oXylylene), the Ki came to 2.82 nM.
With `C[C@@H](O)[C@@H]1NC(=O)[C@@H](NC(=O)[C@H](CO)NC(=O)[C@H](Cc2ccccc2)NC(=O)CCOCCOCCNC(=O)CN2CCN(CC(=O)O)CCN(CC(N)=O)CCN(CC(=O)O)CC2)CSCc2ccccc2CSC[C@@H](C(N)=O)NC(=O)[C@H](Cc2c[nH]c3ccccc23)NC(=O)[C@H](Cc2c[nH]c3ccccc23)NC(=O)[C@H](CCC(N)=O)NC(=O)[C@H](CCC(=O)O)NC(=O)[C@H](Cc2ccccc2)NC(=O)[C@@H]2CCCN2C1=O` [VMT-FAP-2-39, PSC-PEG2-F-S-[C(oXdB)TPFEQWWC]-NH2] ({X1-PEG2}-FSCTPFEQWWC-NH2; linker 3-11 via oXylylene), the Ki stood at 0.67 nM.
With `C[C@@H](O)[C@@H]1NC(=O)[C@@H](NC(=O)[C@H](CO)NC(=O)CCOCCOCCNC(=O)CN2CCN(CC(=O)O)CCN(CC(N)=O)CCN(CC(=O)O)CC2)CSCc2ccccc2CSC[C@@H](C(N)=O)NC(=O)[C@H](Cc2c[nH]c3ccccc23)NC(=O)[C@H](Cc2c[nH]c3ccccc23)NC(=O)[C@H](CCC(=O)O)NC(=O)[C@H](CCC(=O)O)NC(=O)[C@H](Cc2ccccc2)NC(=O)[C@@H]2CCCN2C1=O` [VMT-FAP-2-43, PSC-PEG2-S-[C(oXdB)TPFEEWWC]-NH2] ({X1-PEG2}-SCTPFEEWWC-NH2; linker 2-10 via oXylylene) the figure was 0.07 nM; with `C[C@@H](O)[C@@H]1NC(=O)[C@@H]2CCCN2C(=O)[C@H](Cc2c[nH]c3ccccc23)NC(=O)[C@H](CCC(=O)O)NC(=O)[C@H](CCC(N)=O)NC(=O)[C@H](Cc2c[nH]c3ccccc23)NC(=O)[C@H](Cc2c[nH]c3ccccc23)NC(=O)[C@@H](NC(=O)CCOCCOCCNC(=O)CN2CCN(CC(=O)O)CCN(CC(N)=O)CCN(CC(=O)O)CC2)CSCc2ccccc2CSC[C@@H](C(=O)N[C@@H](CO)C(N)=O)NC1=O` [VMT-FAP-2-84, PSC-PEG2-[C(oXdB)WWQEWPTC]S-NH2] ({X1-PEG2}-CWWQEWPTCS-NH2; linker 1-9 via oXylylene), 115 nM; with `CC(=O)NCC(=O)N[C@H]1CSCc2ccccc2CSC[C@@H](C(N)=O)NC(=O)[C@H](Cc2c[nH]c3ccccc23)NC(=O)[C@H](Cc2c[nH]c3ccccc23)NC(=O)[C@H](CCC(N)=O)NC(=O)[C@H](CCC(=O)O)NC(=O)[C@H](Cc2ccccc2)NC(=O)[C@@H]2CCCN2C(=O)[C@H]([C@@H](C)O)NC1=O` [VMT-FAP-1-1, Ac-G[C(oXdB)TPFEQWWC]-NH2] (Ac-GCTPFEQWWC-NH2; linker 2-10 via oXylylene), 10.4 nM.
For the molecule `C[C@@H](O)[C@@H]1NC(=O)[C@@H](NC(=O)[C@H](CO)NC(=O)CCOCCOCCNC(=O)CN2CCN(CC(=O)O)CCN(CC(N)=O)CCN(CC(=O)O)CC2)CSCc2ccccc2CSC[C@@H](C(N)=O)NC(=O)[C@H](Cc2c[nH]c3ccccc23)NC(=O)[C@H](Cc2c[nH]c3ccccc23)NC(=O)[C@H](CCC(N)=O)NC(=O)[C@H](CCC(=O)O)NC(=O)[C@H](Cc2cccnc2)NC(=O)[C@@H]2CCCN2C1=O` [VMT-FAP-2-62, PCS-PEG2-S-[C(oXdB)TP3-PalEQWWC]-NH2] ({X1-PEG2}-SCTP[3Pal]EQWWC-NH2; linker 2-10 via oXylylene), the Ki was determined as 0.61 nM.
With `C[C@@H](O)[C@@H]1NC(=O)[C@@H](NC(=O)[C@H](CO)NC(=O)CCOCCOCCNC(=O)CN2CCN(CC(=O)O)CCN(CC(N)=O)CCN(CC(=O)O)CC2)CSCc2ccccc2CSC[C@@H](C(N)=O)NC(=O)[C@H](Cc2c[nH]c3ccccc23)NC(=O)[C@H](Cc2c[nH]c3ccccc23)NC(=O)[C@H](CCC(N)=O)NC(=O)[C@H](CCC(=O)O)NC(=O)[C@H](Cc2csc3ccccc23)NC(=O)[C@@H]2CCCN2C1=O` [VMT-FAP-2-61, PCS-PEG2-S-[C(oXdB)TPBtaEQWWC]-NH2] ({X1-PEG2}-SCTP[Bta]EQWWC-NH2; linker 2-10 via oXylylene) the figure was 0.3 nM.
For `C[C@@H](O)[C@@H]1NC(=O)[C@@H](NC(=O)[C@H](CC(=O)O)NC(=O)CCOCCOCCNC(=O)CN2CCN(CC(=O)O)CCN(CC(N)=O)CCN(CC(=O)O)CC2)CSCc2ccccc2CSC[C@@H](C(N)=O)NC(=O)[C@H](Cc2c[nH]c3ccccc23)NC(=O)[C@H](Cc2c[nH]c3ccccc23)NC(=O)[C@H](CCC(N)=O)NC(=O)[C@H](CCC(=O)O)NC(=O)[C@H](Cc2ccccc2)NC(=O)[C@@H]2CCCN2C1=O` [VMT-FAP-2-41, PSC-PEG2-D-[C(oXdB)TPFEQWWC]-NH2] ({X1-PEG2}-DCTPFEQWWC-NH2; linker 2-10 via oXylylene), the Ki worked out at 0.19 nM.
Take `CC(=O)N[C@@H](CC(=O)O)C(=O)N[C@H]1CSCc2ccccc2CSC[C@@H](C(N)=O)NC(=O)[C@H](Cc2c[nH]c3ccccc23)NC(=O)[C@H](Cc2c[nH]c3ccccc23)NC(=O)[C@H](CCC(N)=O)NC(=O)[C@H](CCC(=O)O)NC(=O)[C@H](Cc2ccccc2)NC(=O)[C@@H]2CCCN2C(=O)[C@H]([C@@H](C)O)NC1=O` [VMT-FAP-1-14, Ac-D[C(oXdB)TPFEQWWC]-NH2] (Ac-DCTPFEQWWC-NH2; linker 2-10 via oXylylene): the inhibitory constant (Ki) stood at 0.36 nM.
In the case of `CC[C@H](C)[C@@H]1NC(=O)[C@H](CCC(=O)O)NC(=O)[C@H](Cc2ccccc2)NC(=O)[C@@H]2CCCN2C(=O)[C@H]([C@@H](C)O)NC(=O)[C@@H](NC(=O)[C@H](CO)NC(C)=O)CSCc2ccccc2CSC[C@@H](C(N)=O)NC(=O)[C@H](Cc2c[nH]c3ccccc23)NC(=O)[C@H](Cc2c[nH]c3ccccc23)NC1=O` [VMT-FAP-1-94, Ac-S[C(oXdB)TPFEIWWC]-NH2] (Ac-SCTPFEIWWC-NH2; linker 2-10 via oXylylene), the Ki was determined as 5.01 nM.
Consider `CC(=O)N[C@@H](CC(N)=O)C(=O)N[C@H]1CSCc2ccccc2CSC[C@@H](C(N)=O)NC(=O)[C@H](Cc2c[nH]c3ccccc23)NC(=O)[C@H](Cc2c[nH]c3ccccc23)NC(=O)[C@H](CCC(N)=O)NC(=O)[C@H](CCC(=O)O)NC(=O)[C@H](Cc2c[nH]c3ccccc23)NC(=O)[C@@H]2CCCN2C(=O)[C@H]([C@@H](C)O)NC1=O` [VMT-FAP-1-62, Ac-N[C(oXdB)TPWEQWWC]-NH2] (Ac-NCTPWEQWWC-NH2; linker 2-10 via oXylylene), for which the inhibition constant Ki is 0.46 nM.
As to `CC(=O)N[C@@H](CO)C(=O)N[C@H]1CNC(=O)CC(NC(=O)[C@H](Cc2ccccc2)NC(=O)CCOCCOCCNC(=O)CN2CCN(CC(=O)O)CCN(CC(N)=O)CCN(CC(=O)O)CC2)CC(=O)NC[C@@H](C(N)=O)NC(=O)[C@H](Cc2c[nH]c3ccccc23)NC(=O)[C@H](Cc2c[nH]c3ccccc23)NC(=O)[C@H](CCC(N)=O)NC(=O)[C@H](CCC(=O)O)NC(=O)[C@H](Cc2ccccc2)NC(=O)[C@@H]2CCCN2C(=O)[C@H]([C@@H](C)O)NC1=O` (stereo partly drawn) [VMT-FAP-2-33, Ac-S-[Dap(bGlu(F-PEG2-PSC))TPFEQWWDap]-NH2] (Ac-S[Dap]TPFEQWW[Dap]-NH2; linker 2-10 via X3 (inferred)), the inhibition constant (Ki) came to 1.26 nM.
Take “PSC-Bn-NCS-PEG2-[C(oXdB)TPWEQWWC]-NH2 [VMT-FAP-2-73]”: the inhibitory constant (Ki) was found to be 3.61 nM.

For orientation: Ki means the equilibrium dissociation constant of an inhibitor or competing ligand from its target.
